# Structures can show the parent of a compound that is named as a salt. Where two headings read alike, the source gives them in different places.
# Columns and labels:
# [1] = system: synaptic ribbons in inner hair cells; assay: Ribbon synapse immunostaining and counting in cochlea, immediate treatment (Example 6); format: in vivo, male Wistar rats; settings: 2 hours and 8 days post-noise; for Number of pre-synaptic elements CtBP2 per IHC: 25 kHz and 32 kHz; for Number of pre-synaptic elements CtBP2 per IHC / Number of colocalized ribbons per IHC: vs traumatized vehicle group; for Number of colocalized ribbons per IHC: 25 kHz, paliroden 300 μg/ear, xaliproden 150 μg/ear; for Synapse loss in the inner hair cells: regions coding high frequency sounds
# Protocol: At T+28DAYS, after DPOAE/ABR measures, 10 cochleae (all eight (8) left cochleae and two (2) right cochleae taken randomly) per group were rapidly sampled and immediately fixed by PFA perfusion (through the round and oval windows with PFA 4% after creating a small hole at the apex) in order to performed ribbon synapse immunostaining and analysis. Cochleae were fixed for 1 hour in a 4% PFA solution and decalcified in undiluted RDO (10 mL/cochlea for a minimum of 2 hours). The membranous and sensory spiral containing the organ of Corti are dissected out as a flat surface preparation under a dissecting microscope and immunolabelled with appropriate antibodies: • Vglut3 (Vglut3-Guinea Pig IgG; #135 204, Synaptic systems and Anti-Guinea Pig IgG (H+L), #A21450; Thermo Fisher Scientific 647 nm Far-Red) to stain inner hair cell bodies (vesicular glutamate transporter). • Homer (Homer-Rabbit IgG; #GTX103278; Genetex and Anti-Rabbit IgG (H+L) #A11008 Thermo Fisher Scientific 568 nm Red) to stain dendritic proteins of auditory nerve fibers connecting to IHC (post-synaptic). • CtBP2 (CtBP2-Mouse-IgG1; #612044; BD Transduction Laboratories and Anti-Mouse IgG1, #A21121, Thermo Fisher Scientific 488 Green) to stain the ribeye protein as pre-synaptic marker in IHC. • Phalloidin (Alexa Fluor™ Plus 405 Phalloidin; #A30104; Thermo Fisher Scientific 405 Blue).
# Images were acquired on a confocal microscope and the slides were analyzed to i) evaluate by visual observation the presence of OHC (outer hair cells) and IHC (inner hair cells) (based on nuclei staining with CtBP2 and HC cell body staining with phalloidin) and ii) count the number of synaptic ribbons in selected inner hair cells in cochlea regions coding sound of selected frequency (16 kHz, 25 kHz and 32 kHz).
# The number of pre- (CtBP2) and post-synaptic (Homer) labeled spots was counted using Imaris software in 3 dimensions for each image. Co-localization of pre- and post-synaptic elements was defined as a distance of maximum […] between CtBP2- and Homer-labeled spots, using an in-house Matlab program to calculate the distances between CtBP2 and Homer labels from the x, y, and z coordinates.
# male Wistar rats = assay: ABR thresholds after acoustic trauma and trans-tympanic treatment (Example 5); format: in vivo
# Protocol: Fourty-three male Wistar rats were selected and distributed to treatment and control groups, each group comprising between 6 to 9 rats at the start of the study. Randomization was performed using the ABR threshold in the left ear at 16 kHz as a criterium. The “sham” group comprises 7 rats, which received neither noise exposure nor trans-tympanic injection. […] The “traumatized” group comprises 9 rats, which received noise exposure only and no treatment. The “traumatized vehicle” group comprises 7 rats, which received noise exposure and a trans-tympanic injection of placebo (a composition comprising only Cremophor EL®). The “traumatized paliroden” group comprises 7 rats, which received noise exposure and a trans-tympanic injection of a composition comprising paliroden (fumarate salt), corresponding to composition 7P described in Example 2. The “traumatized xaliproden” group comprises 7 rats, which received noise exposure and a trans-tympanic injection of a composition comprising xaliproden (hydrochloride salt), corresponding to composition 7X described in Example 2.
# All animals (except sham group) received a bilateral noise exposure at a noise band of 8-16 kHz at 115 dB SPL RMS during 2 hours (from time T0 to time T0+2 hours).
# 30 μL of compositions comprising either paliroden or xaliproden as active agent were administered once in both ears of each rat of the treatment groups (30 μL per ear) via trans-tympanic administration by injection between the eardrum and the round window by means of a needle which crosses the eardrum, 4 hours after the start of the noise exposure (i.e. at T0+4 hours, thus 2 hours after the end of the noise exposure), under isoflurane anesthesia. The compositions correspond respectively to compositions 7P and 7X described in Example 2, i.e. they comprise only Cremophor EL® as excipient and either paliroden (fumarate salt) or xaliproden (hydrochloride salt) as active agent. The dose of paliroden (fumarate salt) that is administered is 240 μg per ear of the rats belonging to the “traumatized paliroden” group (240 μg in the 30 μL that are injected via trans-tympanic route by injection between the eardrum and the round window by means of a needle which crosses the eardrum). The dose of xaliproden (hydrochloride salt) that is administered is 192 μg per ear of the rats belonging to the “traumatized xaliproden” group (192 μg in the 30 μL that are injected via trans-tympanic route by injection between the eardrum and the round window by means of a needle which crosses the eardrum). […]
# [2] = Plasma and inner ear fluid exposure after single trans-tympanic injection in thermoreversible hydrogel composition (Example 4); format: in vivo, male Wistar rats; settings: for concentration at 7 days / concentration at 1 h / concentration at 24 h / concentration at 168 h: male, Wistar, other: trans-tympanic injection; for concentration at 7 days: inner ear fluid, read-out: Concentrations in the inner ear fluid at 7 days post injection; for concentration at 7 days / High concentrations rapidly reached in the inner ear fluid / High concentrations rapidly reached in the IEF (molar): trans-tympanic injection; for concentration at 1 h: T0 + 1 hour; for concentration at 24 h: T0 + 24 hours; for High concentrations rapidly reached in the inner ear fluid: summary
# Protocol: Composition 4P and composition 4X as described in example 2 were administered to male Wistar rats (5 animals per active agent and timepoint), as described below.
# At time T0, 30 μL of composition 4P were administered to 15 rats, in a single ear via trans-tympanic injection. The dose of paliroden fumarate that has been administered is thus of 300 μg in one ear of each rat.
# At time T0, 30 μL of composition 4X were administered to 15 other rats, in a single ear via trans-tympanic injection. The dose of xaliproden hydrochloride that has been administered is thus of 150 μg in one ear of each rat.
# For the 15 rats that have received composition 4P and for the 15 rats that have received composition 4X, plasmatic and inner ear expositions were determined via blood and cochlea terminal sampling in order to achieve lithium-heparin plasma and inner ear fluid preparation, at T+1 hour, T+24 hours and T+168 hours. Bioanalytical methods were validated in both matrices (lithium heparin plasma and inner ear fluid) with a range of 0.2 to 815 ng/mL for paliroden (fumarate salt) and 0.38 to 763 ng/mL for xaliproden (hydrochloride salt).
# [3] = one day following noise exposure, from 25 to 32 kHz, paliroden 240 μg/ear, xaliproden 192 μg/ear
# [4] = plasma, 150 μg in one ear, rat, trans-tympanic 150 μg one ear, suspension in thermoreversible hydrogel, read-out: Concentration of xaliproden (hydrochloride salt), Plasma, Mean
# [5] = rat, suspension in thermoreversible hydrogel
# [6] = rat, thermoreversible hydrogel, approximate conversion
# [7] = rat inner ear fluid, trans-tympanic 300 μg, thermoreversible hydrogel, read-out: Concentration of paliroden (fumarate salt), IEF, Mean
# [8] = plasma, rat, trans-tympanic 300 μg one ear, suspension in thermoreversible hydrogel, read-out: Concentration of paliroden (fumarate salt), Plasma, Mean
compound,measurement,setting,value
"FC(F)(F)c1cccc(C2=CCN(CCc3ccc4ccccc4c3)CC2)c1 [xaliproden (hydrochloride salt), 1-[2-(2-naphthyl)ethyl]-4-(3-trifluoromethylphenyl)-1,2,3,6-tetrahydropyridine]",Number of pre-synaptic elements CtBP2 per IHC,[1],increase
same,Number of colocalized ribbons per IHC,[1],increase
same,Synapse loss in the inner hair cells,[1],tend to repair synapse loss
same,ABR Threshold shifts reduction in comparison to the traumatized vehicle group,"male Wistar rats; 7 days post-noise, from 25 to 32 kHz, xaliproden 192 μg/ear",approximately 15 dB
same,ABR Threshold shifts reduction in comparison to the traumatized vehicle group,male Wistar rats; [3],approximately 10 dB
same,concentration at 7 days,"[2]; rat, thermoreversible hydrogel",~100 ng/mL
same,concentration at 1 h,"[2]; 150 μg in one ear, rat inner ear fluid, trans-tympanic 150 μg, thermoreversible hydrogel, n = 4, read-out: Concentration of xaliproden (hydrochloride salt), IEF, Mean",5610 ng/mL
same,concentration at 24 h,"[2]; 150 μg in one ear, rat inner ear fluid, trans-tympanic 150 μg, thermoreversible hydrogel, read-out: Concentration of xaliproden (hydrochloride salt), IEF, Mean",108 ng/mL
same,concentration at 168 h,"[2]; 150 μg in one ear, rat inner ear fluid, trans-tympanic 150 μg, thermoreversible hydrogel, T0 + 168 hours, read-out: Concentration of xaliproden (hydrochloride salt), IEF, Mean",117 ng/mL
same,concentration at 1 h,[2]; [4],4.9 ng/mL
same,concentration at 24 h,[2]; [4],9.2 ng/mL
same,"Concentration of xaliproden (hydrochloride salt), Plasma, Mean","[2]; rat, trans-tympanic 150 μg one ear, suspension in thermoreversible hydrogel, T0 + 168 hours",BLQ
same,High concentrations rapidly reached in the inner ear fluid,[2]; [5],approximately 5000 ng/mL
same,High concentrations rapidly reached in the IEF (molar),[2]; [6],approximately 10 μM
"FC(F)(F)c1cccc(C2=CCN(CCc3ccc(-c4ccccc4)cc3)CC2)c1 [paliroden (fumarate salt), 1-[2-(4-biphenylyl)ethyl]-4-(3-trifluoromethylphenyl)-1,2,3,6-tetrahydropyridine]",Number of pre-synaptic elements CtBP2 per IHC,[1],increase
same,Number of colocalized ribbons per IHC,[1],increase
same,Synapse loss in the inner hair cells,[1],tend to repair synapse loss
same,ABR Threshold shifts reduction in comparison to the traumatized vehicle group,"male Wistar rats; 7 days post-noise, from 16 to 32 kHz, paliroden 240 μg/ear",15-20 dB
same,ABR Threshold shifts reduction in comparison to the traumatized vehicle group,male Wistar rats; [3],approximately 10 dB
same,concentration at 7 days,"[2]; 300 μg, rat, thermoreversible hydrogel, approximate conversion",~1200 nM
same,concentration at 7 days,"[2]; rat, thermoreversible hydrogel",~600 ng/mL
same,concentration at 168 h,"[2]; 300 μg in one ear, rat inner ear fluid, trans-tympanic 300 μg, thermoreversible hydrogel, T0 + 168 hours, n = 4, read-out: Concentration of paliroden (fumarate salt), IEF, Mean",687 ng/mL
same,concentration at 1 h,[2]; [7],5490 ng/mL
same,concentration at 24 h,[2]; [7],1370 ng/mL
same,concentration at 168 h,"[2]; plasma, 300 μg in one ear, rat, trans-tympanic 300 μg one ear, suspension in thermoreversible hydrogel, T0 + 168 hours, read-out: Concentration of paliroden (fumarate salt), Plasma, Mean",0.2 ng/mL
same,concentration at 1 h,[2]; [8],1 ng/mL
same,concentration at 24 h,[2]; [8],0.4 ng/mL
same,High concentrations rapidly reached in the inner ear fluid,[2]; [5],approximately 5000 ng/mL
same,High concentrations rapidly reached in the IEF (molar),[2]; [6],approximately 10 μM
